Data as given in BindingDB's records for PubMed 32492596 (Tsinghua University, 2020).
pIC50: −log10 of the molar value.

Assays:
[1] = target: Stromal cell-derived factor 1 (Homo sapiens, UniProt P48061); test: Inhibition of SDF-1 alpha induced cell migration in human SUP-T1 cells pre-incubated for 30 mins followed by SDF-1 alpha addition measured after 3 hrs by cell Titer-96 reagent based analysis
[2] = target: C-X-C chemokine receptor type 4 (Homo sapiens, UniProt P61073); test: Binding affinity to CXCR4 (unknown origin) expressed in CHO cells incubated for 40 mins by competitive binding assay method
Sequence of C-X-C chemokine receptor type 4 (P61073 whole entry): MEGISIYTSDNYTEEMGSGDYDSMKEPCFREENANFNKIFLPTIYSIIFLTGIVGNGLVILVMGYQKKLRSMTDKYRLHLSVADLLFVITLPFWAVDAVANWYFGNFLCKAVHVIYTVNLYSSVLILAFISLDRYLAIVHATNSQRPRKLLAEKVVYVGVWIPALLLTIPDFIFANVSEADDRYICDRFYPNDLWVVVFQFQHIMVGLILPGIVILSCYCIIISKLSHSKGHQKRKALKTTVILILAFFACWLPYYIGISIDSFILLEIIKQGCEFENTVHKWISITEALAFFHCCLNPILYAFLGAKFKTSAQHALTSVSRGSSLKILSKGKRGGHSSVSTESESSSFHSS

Sequence of Stromal cell-derived factor 1 (P48061 whole entry): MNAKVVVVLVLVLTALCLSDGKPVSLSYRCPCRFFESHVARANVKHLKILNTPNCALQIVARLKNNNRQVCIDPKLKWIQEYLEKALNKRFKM

Row | pIC50 [1] | pIC50 [2] | SMILES
1 | 6.21 |  | CCOC(=O)C1CNc2c(OC)cc(Cc3cnc(N)nc3N)c(OC)c2C1 (stereo not given)
2 |  | 7.17 | Cc1ccnc2c(N)cc(Cc3cnc(N)nc3N)cc12
3 |  | 6.92 | Nc1ncc(Cc2ccc3ncccc3c2)c(N)n1

Continued, compound first:

Row | SMILES | pIC50 [1] | pIC50 [2]
4 | COc1cc(Cc2cnc(N)nc2N)cc2c1N(CCOC(C)=O)CCC2C (stereo not given) |  | 7.17
5 | COc1cc(Cc2cnc(N)nc2N)cc2c(C)cc(C)nc12 |  | 6.91
